Data published in patent publication US5272268A, “Dipeptide derivatives” (Shionogi & Co., Ltd., priority 1990, dated 1993).
Substitutions are numbered along the chain they refer to. Values belong to the compound of their own block, whether it stands above or below them.

Key:
Plasma renin activity = biological target: T1, Plasma renin activity (Macaca fascicularis, UniProt Q6DLS0); test: Renin inhibition in vivo (plasma renin activity after oral administration to hyperrenin monkeys); parameters: species or system Crab-eating monkeys (Cynomolgus monkeys); conditions: low sodium diet + furosemide; for Renin inhibition potency, 4 h: 4 h after administration; for Renin inhibition potency, 8 h: 8 h after administration
T1 construct: Two milliliters of blood was collected from femoral vein; from tissue; host or cells: plasma of cynomolgus monkeys made hyperreninemic by low sodium diet and furosemide
T1 sequence (Q6DLS0 67-406): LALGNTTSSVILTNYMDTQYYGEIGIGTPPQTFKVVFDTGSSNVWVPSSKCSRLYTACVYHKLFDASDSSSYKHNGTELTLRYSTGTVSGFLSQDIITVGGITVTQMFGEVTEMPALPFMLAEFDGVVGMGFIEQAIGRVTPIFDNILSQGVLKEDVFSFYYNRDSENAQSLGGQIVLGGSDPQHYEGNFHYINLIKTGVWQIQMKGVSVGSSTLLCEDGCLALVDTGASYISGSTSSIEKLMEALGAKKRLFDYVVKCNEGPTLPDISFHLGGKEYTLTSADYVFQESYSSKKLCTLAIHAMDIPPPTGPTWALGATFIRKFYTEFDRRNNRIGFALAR
Protocol: Crab-eating monkeys (Cynomolgus monkeys) (2.8-5.0 kg) were fed on low sodium diet (Na 7.15 mg/100 g feed) for six days, during which the monkeys intramuscularly received furosemide (2 mg/kg body weight) every other day from the second day of the experiment, in order to make the monkeys hyperrenin condition.
After seven days from the low sodium feeding, the monkeys were restrained on a monkey chair. Compounds to be tested are dissolved in 0.1 M citric acid/physiological saline or suspended in water with addition of β-cyclodextrin, and orally administered to the monkeys using a stomach probe (15 mg/kg body weight). […] For the blood collection, an injection syringe containing 30 μl of 6% aqueous EDTA·2Na solution was used. The collected blood was transferred into a test tube and centrifuged (3000 rpm, 10 minutes) at 4° C., and the resultant supernatant was used to determine the renin content. Plasma renin activity (AI(ng)/ml/h value) was measured using Radioimmunoassy kit commercially available from Dinabott Co. in the same manner as in the foregoing in vitro test. Renin inhibition potencies of the compounds tested, which were expressed as a percentage of renin activity relative to the activity before the administration, are listed in Table 12.

[1] = biological target: T2, intrinsic renin contained in the renatured human plasma (Homo sapiens, UniProt P00797); test: Renin inhibition in vitro (angiotensin I production in renatured human plasma, RIA); assay type: biochemical; conditions: 60 minutes incubation, read-out: IC50 (concentration which inhibits renin activity by 50%)
T2 construct: intrinsic renin contained in the renatured plasma; tissue Ortho Bi-Level Plasma Renin Control; host or cells: human plasma (lyophilized, renatured in water)
T2 sequence (P00797 67-406): T1 sequence (Q6DLS0 67-406) with A2T, L148I, A169S
Protocol: Commercially available lyophilized human plasma (Ortho, Bi-Level Plasma Renin Control) was renatured by dissolving in water. Angiotensinogen was allowed to react with intrinsic renin contained in the renatured plasma to generate angiotensin I (AI), which was quantitatively measured with radioimmunoassay (RIA). Thus, potency of the plasma renin was determined on the basis of the AI production. For this purpose, Renin RIA kit (RENIN' RIABEAD®) manufacture by Dinabott was used. All of the reagents necessary for the measurement of the AI production were available from the attachment of the kit, and the measurement was conducted according to the manufacturer's direction.
To the plasma (0.2 ml) were added all of the reagents, and the mixture was combined with either of sample solutions (0.002 ml) of various concentrations which had been prepared by dissolving a test compound in different amount of ethanol. Ethanol (0.002 ml) containing no test compound was used as a control solution. The amount of AI produced was measured after 60 minutes incubation. Renin inhibition potency of test compound was determined by comparing the amount of AI produced by a sample solution with that produced by a control solution.

SMILES: O=C(C[C@H](O)[C@H](CC1CCCCC1)NC(=O)[C@H](Cc1c[nH]cn1)NC(=O)[C@@H](CC(=O)N1CCOCC1)Cc1cccc2ccccc12)c1ccccc1 [Example 40]
Renin inhibition potency, Max (Plasma renin activity; 15 mg/kg orally): 44%
Renin inhibition potency, Mean (Plasma renin activity; 15 mg/kg orally): 30%
Renin inhibition potency, 4 h (Plasma renin activity; 15 mg/kg orally): 44%
IC50 [1]: 18.1 nM

SMILES: CCS(=O)(=O)C[C@@H](Cc1ccccc1)C(=O)N[C@@H](Cc1c[nH]cn1)C(=O)N[C@@H](CC1CCCCC1)[C@@H](O)CC(=O)c1ccccc1 [Example 38]
IC50 [1]: 39.2 nM

SMILES: O=C(C[C@H](O)[C@H](CC1CCCCC1)NC(=O)[C@H](Cc1cscn1)NC(=O)[C@@H](CC(=O)N1CCOCC1)Cc1cccc2ccccc12)NCCN1CCOCC1 [ES-6864, reference compound]
IC50 [1]: 3.75 nM

SMILES: CC(C)OC(=O)C(O)C(CC1CCCCC1)NC(=O)[C@H](Cc1cnc[nH]1)NC(=O)[C@@H](CC(=O)N1CCOCC1)Cc1cccc2ccccc12 (some centres unmarked) [KRI-1314, reference compound]
IC50 [1]: 21.3 nM

SMILES: CC(C)(C)S(=O)(=O)C[C@@H](Cc1ccccc1)C(=O)N[C@@H](Cc1c[nH]cn1)C(=O)N[C@@H](CC1CCCCC1)[C@@H](O)CC(=O)c1ccncc1 [Example 1, 3-t-Butylsulfonyl-2(S)-phenylmethylpropionyl-His-1(S)-cyclohexylmethyl-2(S)-hydroxy-4-oxo-4-(4-pyridyl)butylamide]
Renin inhibition potency, Max (Plasma renin activity; 30 mg/kg orally): 33%
Renin inhibition potency, Mean (Plasma renin activity; 30 mg/kg orally): 22%
Renin inhibition potency, 4 h (Plasma renin activity; 30 mg/kg orally): 22%
IC50 [1]: 6.09 nM

SMILES: O=C(C[C@H](O)[C@H](CC1CCCCC1)NC(=O)[C@H](Cc1c[nH]cn1)NC(=O)[C@@H](CC(=O)N1CCOCC1)Cc1cccc2ccccc12)c1ccncc1 [Example 42]
IC50 [1]: 13 nM

SMILES: CC(C)S(=O)(=O)C[C@@H](Cc1ccccc1)C(=O)N[C@@H](Cc1c[nH]cn1)C(=O)N[C@@H](CC1CCCCC1)[C@@H](O)CC(=O)c1ccccc1 [Example 37]
IC50 [1]: 14.5 nM

SMILES: COc1ccc(C(=O)C[C@H](O)[C@H](CC2CCCCC2)NC(=O)[C@H](Cc2c[nH]cn2)NC(=O)[C@H](Cc2ccccc2)CS(=O)(=O)C(C)(C)C)cc1 [Example 22]
IC50 [1]: 39.2 nM

These reach a lower IC50 [1]. Values come first.

IC50 [1]: 1.24 nM
SMILES: CC(C)(C)S(=O)(=O)C[C@@H](Cc1ccccc1)C(=O)N[C@@H](Cc1cscn1)C(=O)N[C@@H](CC1CCCCC1)[C@@H](O)CNS(=O)(=O)c1ccccc1 [Example 62]

Renin inhibition potency, Max (Plasma renin activity; 15 mg/kg orally): 96%
Renin inhibition potency, Mean (Plasma renin activity; 15 mg/kg orally): 85%
Renin inhibition potency, 4 h (Plasma renin activity; 15 mg/kg orally): 94%
Renin inhibition potency, 8 h (Plasma renin activity; 15 mg/kg orally): 73%
IC50 [1]: 0.36 nM
SMILES: O=C(N[C@@H](CC1CCCCC1)[C@@H](O)CNS(=O)(=O)N1CCOCC1)[C@H](Cc1cscn1)NC(=O)[C@H](Cc1ccccc1)NS(=O)(=O)N1CCOCC1 [Example 53]

Renin inhibition potency, Max (Plasma renin activity; 15 mg/kg orally): 93%
Renin inhibition potency, Mean (Plasma renin activity; 15 mg/kg orally): 72%
Renin inhibition potency, 4 h (Plasma renin activity; 15 mg/kg orally): 82%
Renin inhibition potency, 8 h (Plasma renin activity; 15 mg/kg orally): 85%
IC50 [1]: 0.7 nM
SMILES: CN(C)S(=O)(=O)NCC(O)C(CC1CCCCC1)NC(=O)C(Cc1cscn1)NC(=O)C(Cc1ccccc1)NS(=O)(=O)N1CCOCC1 (centres unmarked) [Example 56]

IC50 [1]: 0.53 nM
SMILES: CC(C)(C)S(=O)(=O)CC(Cc1ccccc1)C(=O)NC(Cc1cscn1)C(=O)NC(CC1CCCCC1)C(O)CNS(C)(=O)=O (centres unmarked) [Example 69]
